Data on two compounds can be found in patent publication US10323254B2, “Method for regulating plant growth” (RIKEN, priority 2015, dated 2019).

In test [1] the test system is BR-responsive genes (TCH4, BAS1, IAA19, and SAUR-AC1). Kind of test: qRT-PCR of BR-responsive gene expression in seedlings. The class given is in vivo, Arabidopsis thaliana. As to conditions: wild-type (WT) plants; 7-day-old dark-germinated seedlings; 3 μM Brz or 100 nM BL for 3 hours. As to the method: The expression level of TCH, BAS1, IAA19, and SAUR-AC1 were analyzed by qRT-PCR in 7-day-old dark-germinated seedlings and treated with medium containing DMSO (Mock), 3 μM Brz (+Brz), or 100 nM BL (+BL) for 3 hours. The data represent the mean±s.d. of 4 independent experiments (**P<0.01, Student's t-test). […] Ten-day-old seedlings grown on medium with Brz were treated with 100 nM BL or mock solution for 3 hours. Total proteins were extracted and analyzed by immunoblotting with an anti-BIL1 antibody. […] The signal intensities of phosphorylated BIL1 (above) and dephosphorylated BIL1 (below) are shown by arrowhead, and each band signal is counted as a percentage relative to the level of phosphorylated BIL1 in WT seedlings.
Total RNA was extracted from plants using an RNeasy Plant Mini Kit (QIAGEN).
The first-strand cDNA was synthesized using PrimeScript (Takara) and was used in qRT-PCR. The qRT-PCR was performed according to the instructions provided for the Thermal Cycler Dice (Takara) using the SYBR Premix ExTaq system (Takara). […]
In general terms: Quantitative PCR measures a nucleic acid by following its amplification.

The subject of a further test is BSS1. Kind of test: qRT-PCR of BSS1 expression in wild-type seedlings. The class given is in vivo, Arabidopsis thaliana. As to conditions: WT seedlings on medium with different concentrations of Brz or BL, 7 days; dose-dependent. As for the experimental part:
The data represent the mean±s.d. from 4 independent experiments. […] The samples were grown in the same conditions as FIG. 4A for 3 days (scale bar: 5 mm). FIGS. 4C to 4E show the results of determining the BSS1 expression level by qRT-PCR. Wild-type (WT) seedlings grown on medium with different concentrations of Brz (FIG. 4C) and BL (FIG. 4D) in the light for 7 days and dark-grown seedlings exposed to light for 0-7 days (Figure E) were used for analysis of the BSS1 expression level. The data represent the mean±s.d. of 4 independent experiments.
Approximately 10,000 RIKEN GSC Arabidopsis activation-tagging lines (Nakazawa et al., 2003, Activation tagging, a novel tool to dissect the functions of a gene family. Plant J. 34: 741-750) were screened on ½ MS medium containing 3 μM Brz (Asami et al., 2000, Characterization of brassinazole, a triazole-type brassinosteroid biosynthesis inhibitor, Plant Physiol. 123: 93-100). After growth for 7 days in the dark, seedlings with shorter hypocotyls than those of the controls were identified and transferred to soil. […] First-strand cDNA was synthesized with PrimeScript (Takara) and used in quantitative real-time PCR (qRT-PCR). […]

For test [2], the system named is nEYFP-BSS1 and BIL1-cEYFP. Kind of test: BiFC analysis of the BSS1-BIL1 interaction in protoplast cells. The class given is cell-based, Arabidopsis. As to conditions: protoplasts. As to the method: BIL1 was fused with the binding-domain (BD) and BSS1 was fused with the prey domain (AD). Empty vector (E) was used as a control. The results are presented as the mean±s.d. from 3 independent experiments. […] FLAG-BIL1 was immunoprecipitated using an anti-FLAG antibody and immunoblotted using anti-GFP and anti-FLAG antibodies. […] The protoplast medium contained DMSO, 100 nM BL, or 3 μM Brz and cells were cultured for 12 hours. The bottom panels show protoplasts cotransfected with nYFP-BSS1 and BSS1-cEYFP (YFP: YFP fluorescence; BF: bright field; Merge: merged image of YFP and BF; arrow: nucleus; scale bar: 5 μm). […]
To analyze the direct interaction between BSS1 and BIL1 in the plant cell and to identify the localization of the possible interaction between the two proteins, a bi-molecular fluorescence complementation (BiFC) analysis was performed. […] The YFP fluorescence signal caused by the binding of nYFP-BSS1 and BIL1-cYFP was only observed in the cytosol and not in the nucleus of the Arabidopsis protoplasts (FIG. 7E). […]

The test system of the next test is BSS1-GFP. Kind of test: Fluorescence microscopy of punctate BSS1-GFP in transgenic seedlings. The class given is in vivo, Arabidopsis thaliana. As to conditions: versus control conditions; for number of punctate BSS1-GFP: seedlings grown on medium with 3 μM Brz or 100 nM BL.

For the compound `CC(C)[C@H](C)[C@@H](O)[C@H](O)[C@@H](C)[C@H]1CC[C@H]2[C@@H]3COC(=O)[C@H]4C[C@H](O)[C@H](O)C[C@]4(C)[C@H]3CC[C@]12C` [BL, brassinolide], the “expression of TCH4, BAS1, IAA19, and SAUR-AC1” value in test [1] was “increased”. In addition, in the test on BSS1, the BSS1 expression result is listed as “decreased”. Moreover, the “localization of YFP signal (nYFP-BSS1 / BIL1-cYFP)” value in test [2] (100 nM BL for 12 hours) was “diffuse and spread throughout the cytosol and the nucleus”. The “number of punctate BSS1-GFP” value in the test with BSS1-GFP is “decreased in number”.

For the compound `CC(O)(c1ccccc1)C(Cc1ccc(Cl)cc1)n1cncn1` (stereo not drawn) [Brz, brassinazole], the “expression of TCH4, BAS1, IAA19, and SAUR-AC1” value in test [1] is “suppressed”. The BSS1 expression entry with BSS1 is given as “increased”. The “punctate YFP signal (nYFP-BSS1 / BIL1-cYFP)” value in test [2] (3 μM Brz for 12 hours) was “increased”. For the same compound, the “diffused BSS1-GFP signal in the cytosol” value in the test on BSS1-GFP (seedlings grown on medium containing Brz) is given as “reduced”. In addition, the “number of punctate BSS1-GFP” value with BSS1-GFP is “increased in number”.
